The text below walks through data of US10167283B2, “β-lactamase inhibitors and uses thereof” (priority 2015, dated 2019).

Structures can show the parent of a compound that is named as a salt. Where two headings read alike, the source gives them in different places.

Series [1] concerns Enterobacter cloacae 7495ecl-296 (IMP, ESBLs, AmpC). The experiment in a line: In vitro antibacterial activity on clinically separated CRE strain, agar dilution MIC. As to conditions: Table 3, 7495ecl-296 Enterobacter cloacae. The series is classed as cell-based. From the text: (§1) Experimental strains: all experimental standard bacterial strains for enzyme production were purchased from ATCC, and the clinically separated CRE strain was purchased from Southwest Hospital of the Third Military Medical University.
(§2) Experimental Method: Agar dilution method, referring to M100-S23: Performance Standards for Antimicrobial Susceptibility Testing: Twenty-Third Informational Supplement (Clinical And Laboratory Standards Institute, 2013). Minimal inhibitory concentration (MIC, μg/mL) was calculated.
(In agar dilution, organisms are placed on agar that contains the substance at set levels.)

The test system of series [2] is Enterobacter cloacae 7513ecl-314 (AmpC). Described as above. The series is classed as cell-based.
Excerpt: as §1, §2

Series [3] relates to Klebsiella pneumoniae 7477kpn-624 (NDM, ESBLs). The series is described as above. The series is classed as cell-based. As to conditions: Table 3, 7477kpn-624 Klebsiella pneumoniae.
Excerpt: as §1, §2

Series [4] deals with Enterobacter cloacae 7511ecl-312 (NDM, ESBLs, AmpC). Described as above. The series is classed as cell-based. As to conditions: Table 3, 7511ecl-312 Enterobacter cloacae.
Excerpt: as §1, §2

Another series has as its target T1, AmpC (UniProt P05364).
T1 construct: The concentration of purchased β-lactamases mother liquor was 1 mg/mL, and the mother liquor was dissolved in 50% glycerol
Kind of series: β-lactamase inhibition, Nitrocefin hydrolysis. Type of series: biochemical. The settings on record: Nitrocefin 0.1 mM. The method, then: Nitrocefin, a kind of cephalosporin antibiotics, is sensitive to most of β-lactamases, and changes in color after being hydrolyzed. The hydrolysis rate of Nitrocefin was measured by real-time recording corresponding absorbance of reaction system. β-Lactamase inhibitors could inhibit hydrolysis of the enzymes to Nitrocefin, and reduce hydrolysis rate. By measuring reaction rates in the same reaction system under different inhibitor concentrations, the IC50 (half maximal inhibitory concentration) values of inhibitors were calculated.
Nitrocefin was dissolved in DMSO to form a solution with concentration of 2 mM, which was sub-packaged and stored at −20° C. The concentration of purchased β-lactamases mother liquor was 1 mg/mL, and the mother liquor was dissolved in 50% glycerol. A part of mother liquor was taken and diluted by 1000 times in reaction solution, sub-packaged and stored at ˜20° C.
The compounds to be tested were dissolved in DMSO to form a mother liquor with concentration of 10 mM. If not used that day, the mother liquor was stored at −20° C. Its test final concentrations were: 100 μM, 25 μM, 6.25 μM, 1.563 μM, 390.6 nM, 97.66 nM, 24.41 nM, 6.10 nM, 1.53 nM, 0.381 nM, 0.095 nM.

Series [5] has as its system Klebsiella pneumoniae BAA-1900 (KPC). Kind of series: In vitro antibacterial activity, agar dilution MIC. Type of series: cell-based. The settings on record: KPC, read-out: MIC.
Excerpt: as §1, §2

The subject of series [6] is Enterobacter cloacae BAA-2341 (KPC). The experiment in a line: In vitro antibacterial activity, agar dilution MIC. The settings on record: BAA2341; Table 2; BAA-2341 Enterobacter cloacae, KPC; read-out: MIC. Type of series: cell-based.
Excerpt: as §1, §2

In series [7] the test system is Escherichia coli BAA-2340 (KPC). Kind of series: In vitro antibacterial activity, agar dilution MIC. As to conditions: BAA2340, Table 2, BAA-2340 Escherichia coli. Type of series: cell-based.
Excerpt: as §1, §2

Series [8] relates to Klebsiella pneumoniae BAA-2524 (OXA-48). The experiment in a line: In vitro antibacterial activity, agar dilution MIC. Type of series: cell-based. The settings on record: BAA2524; Table 2; BAA-2524 Klebsiella pneumoniae, OXA-48; read-out: MIC.
Excerpt: as §1, §2

Series [9] deals with Escherichia coli BAA-2452 (NDM-1). The experiment in a line: In vitro antibacterial activity, agar dilution MIC. Type of series: cell-based. The settings on record: NDM-1, read-out: MIC.
Excerpt: as §1, §2

In series [10] the test system is Escherichia coli BAA-2523 (OXA-48). The experiment in a line: In vitro antibacterial activity, agar dilution MIC. The series is classed as cell-based. As to conditions: OXA-48, read-out: MIC.
Excerpt: as §1, §2

Series [11] deals with Klebsiella pneumoniae BAA-2146 (NDM-1). The experiment in a line: In vitro antibacterial activity, agar dilution MIC. The series is classed as cell-based. As to conditions: NDM-1, read-out: MIC.
Excerpt: as §1, §2

Series [12] deals with Klebsiella oxytoca ATCC-51983 (SHV-5). The experiment in a line: In vitro antibacterial activity, agar dilution MIC. The series is classed as cell-based. The settings on record: ATCC51983; Table 2; ATCC-51983 Klebsiella oxytoca, SHV-5; read-out: MIC.
Excerpt: as §1, §2

For series [13], the system named is Enterobacter hormaechei BAA-2082 (KPC). The experiment in a line: In vitro antibacterial activity, agar dilution MIC. The series is classed as cell-based. As to conditions: BAA2082; Table 2; BAA-2082 Enterobacter hormaechei, KPC; read-out: MIC.
Excerpt: as §1, §2

In series [14] the test system is Escherichia coli BAA-196 (TEM-10). The experiment in a line: In vitro antibacterial activity, agar dilution MIC. As to conditions: TEM-10, read-out: MIC. The series is classed as cell-based.
Excerpt: as §1, §2

Series [15] in a line: Pharmacokinetics in SD rats (iv). Type of series: in vivo, SD rat. The settings on record: male, plasma; for half-life / clearance: SD, rat, iv, 1 mg/kg; for clearance: read-out: Cl—obs (converted); for Vd / AUC(0-t): SD rat, iv 1 mg/kg; for Vd: apparent volume of distribution, read-out: Vss—obs; for AUC(0-t): area under the curve 0→t. The method, then: Experimental Example 1: Pharmacokinetics Experiments of the Compound of the Present Invention in Rats Test animals: 3 male SD rats, bodyweight 200-250 g for each animal. Test samples were administrated via intravenous push (iv), dosage of administration was 1 mg/kg, volume of administration was 2 mL/kg. Collecting time points: iv: after administration 0.083 […]. At each time point, about 100 μL of whole blood was sampled via caudal vein, added to K2EDTA anti-coagulative tube, centrifuged in a refrigerated centrifuge under 8000 rpm for 6 min to separate plasma, and the plasma was stored in -80° C. refrigerator. Plasma (20 μL) was taken and placed in a 96-well deep-well plate, and internal standard solution (300 μL) was added, subjected to vortex for 5 min, then centrifuged under 12000 rpm for 5 min, and then supernatant (200 μL) was taken and subjected to vortex for 3 min; to be analyzed by LC-MS/MS. Plasma (30 μL) was taken and placed in 1.5 mL EP tube, and internal standard solution (300 μL) was added, subjected to vortex for 5 min, then centrifuged under 12000 rpm for 5 min, and then supernatant (200 μL) was taken and subjected to vortex for 3 min; to be analyzed by LC-MS/MS. Plasma (30 μL) was taken and placed in a 96-well deep-well plate, and internal standard solution (200 μL) was added, subjected to vortex for 5 min, then centrifuged under 4000 rpm for 20 min, and then supernatant (100 μL) was taken and water (100 μL) was added, and subjected to vortex homogeneously; to be analyzed by LC-MS/MS.

Where [16] appears, read: Table 3, 7513ecl-314 Enterobacter cloacae.
Where [17] appears, read: Experiment 1, enzyme 0.4 nM, read-out: IC50 Type C AmpC.
[18] abbreviates: BAA1900, Table 2, BAA-1900 Klebsiella pneumoniae.
Where [19] appears, read: BAA2452, Table 2, BAA-2452 Escherichia coli.
Setting [20] is: BAA2523, Table 2, BAA-2523 Escherichia coli.
[21] abbreviates: BAA2146, Table 2, BAA-2146 Klebsiella pneumoniae.
The mark [22] stands for this setting: BAA196, Table 2, BAA-196 Escherichia coli.

A word on the MIC: it is the lowest concentration that inhibits growth of the organism. For orientation: IC50 means the concentration that inhibits the measured activity by half. As usually defined, the half-life is the time in which the quantity being followed falls by half. Read a high half-life as slow decline. A word on the AUC(0-t): it is the area under the concentration-time curve up to a stated or last time point. A higher AUC(0-t) goes with high exposure. Consider `O=C(NC1CCNCC1)[C@@H]1CC[C@@H]2CN1C(=O)N2OS(=O)(=O)O` [MK-7655, reference compound], for which the MIC in series [1] was greater than 8 µg/mL; in series [2] (setting [16]) it was greater than 8 µg/mL; in series [3], greater than 8 µg/mL; in [4], greater than 8 µg/mL; in series [5] (setting [18]) it was greater than 16 µg/mL; in [6] it was greater than 16 µg/mL. Also, the MIC in series [7], in [8], in series [9] (setting [19]), in series [10] (setting [20]), in [11] (setting [21]) and in series [12] was greater than 16 µg/mL throughout. The MIC in series [13] and in [14] (setting [22]) was greater than 16 µg/mL in each case. Also, the IC50 on AmpC (setting [17]) turned out to be 49.5 nM. In series [15], this molecule had a half-life of 23.4 min. Further, the clearance in series [15] is 16.7 mL/min/kg. In addition, the Vd in [15] is 0.409 L/kg. In addition, the AUC(0-t) in series [15] came to 1020 ng·h/mL.
On to `NC(=O)[C@@H]1CC[C@@H]2CN1C(=O)N2OS(=O)(=O)O` [AVI sodium salt, Avibactam, reference compound], for which the MIC in series [1] is greater than 8 µg/mL; in series [2] (setting [16]), greater than 8 µg/mL; in series [2] (first Table 4, 7513ecl-314 Enterobacter cloacae), 32 µg/mL; in series [3] it was greater than 8 µg/mL; in [4], greater than 8 µg/mL; in series [5] (setting [18]), greater than 8 µg/mL. Moreover, the MIC in series [5] (BAA1900, first Table 4, BAA-1900 Klebsiella pneumoniae) is 16 µg/mL; in series [6], greater than 8 µg/mL; in series [7], 8 µg/mL; in series [8], greater than 8 µg/mL; in series [9] (setting [19]), greater than 8 µg/mL; in [9] (BAA2452, first Table 4, BAA-2452 Escherichia coli) it was 16 µg/mL. Besides, the minimum inhibitory concentration (MIC) in series [10] (setting [20]) is 8 µg/mL; in series [10] (BAA2523, first Table 4, BAA-2523 Escherichia coli) it was 16 µg/mL; in [11] (setting [21]), greater than 8 µg/mL; in series [11] (BAA2146, first Table 4, BAA-2146 Klebsiella pneumoniae), 8 µg/mL; in series [12] it was greater than 8 µg/mL; in series [13] it was greater than 8 µg/mL. Besides, the MIC in [14] (setting [22]) is greater than 8 µg/mL; in series [14] (BAA196, first Table 4, BAA-196 Escherichia coli), 16 µg/mL. For the same molecule, at AmpC (setting [17]), the IC50 turned out to be 101 nM. Also, the half-life in series [15] was 24.6 min. The clearance in series [15] is 14.9 mL/min/kg. Further, the Vd in series [15] turned out to be 0.535 L/kg. This molecule registered an AUC(0-t) in [15] of 1140 ng·h/mL.
As for `O=C(NC1CC2(CNC2)C1)[C@@H]1CC[C@@H]2CN1C(=O)N2OS(=O)(=O)O` [Compound 2, (2S,5R)-2-((2-azaspiro[3.3]heptan-6-yl)carbamoyl)-7-oxo-1,6-diazabicyclo[3.2.1]octan-6-yl hydrogen sulfate], the minimum inhibitory concentration (MIC) in series [1] was found to be 2 µg/mL; in [2] (setting [16]), 2 µg/mL; in series [3], 2 µg/mL; in series [4], 2 µg/mL; in [5] (setting [18]) it was 1 µg/mL; in series [6], 2 µg/mL. Further, the MIC amounted to 0.5 µg/mL in series [7]; 2 µg/mL in [8]; 1 µg/mL in series [9] (setting [19]); 1 µg/mL in series [10] (setting [20]); 2 µg/mL in series [11] (setting [21]); 2 µg/mL in series [12]. Besides, the MIC in series [13] worked out at 2 µg/mL; in [14] (setting [22]) it was 1 µg/mL. For the same molecule, the IC50 worked out at 17.4 nM at AmpC (read-out: IC50 AmpC, Experiment 2, enzyme 1.6 nM) and 32.6 nM at AmpC (read-out: IC50 Type C AmpC, Experiment 1, enzyme 0.4 nM). In series [15], the half-life is 44.4 min. The clearance in [15] is 6.67 mL/min/kg. Moreover, in [15], the Vd turned out to be 0.261 L/kg. The molecule further yielded an AUC(0-t) in [15] of 2500 ng·h/mL.
